Our source for the IC50 values is publication PMC4785065 (Bioorganic & medicinal chemistry letters, 2016).

This test concerns the target human topoisomerase IIα (Homo sapiens, UniProt P11388). In words: DNA cleavage inhibition assay. It counts as biochemical.

Broadly, the IC50 is the point on the concentration scale where inhibition reaches its midpoint. A high value points to weaker potency in that assay.

human topoisomerase IIα, sequence (P11388 whole entry): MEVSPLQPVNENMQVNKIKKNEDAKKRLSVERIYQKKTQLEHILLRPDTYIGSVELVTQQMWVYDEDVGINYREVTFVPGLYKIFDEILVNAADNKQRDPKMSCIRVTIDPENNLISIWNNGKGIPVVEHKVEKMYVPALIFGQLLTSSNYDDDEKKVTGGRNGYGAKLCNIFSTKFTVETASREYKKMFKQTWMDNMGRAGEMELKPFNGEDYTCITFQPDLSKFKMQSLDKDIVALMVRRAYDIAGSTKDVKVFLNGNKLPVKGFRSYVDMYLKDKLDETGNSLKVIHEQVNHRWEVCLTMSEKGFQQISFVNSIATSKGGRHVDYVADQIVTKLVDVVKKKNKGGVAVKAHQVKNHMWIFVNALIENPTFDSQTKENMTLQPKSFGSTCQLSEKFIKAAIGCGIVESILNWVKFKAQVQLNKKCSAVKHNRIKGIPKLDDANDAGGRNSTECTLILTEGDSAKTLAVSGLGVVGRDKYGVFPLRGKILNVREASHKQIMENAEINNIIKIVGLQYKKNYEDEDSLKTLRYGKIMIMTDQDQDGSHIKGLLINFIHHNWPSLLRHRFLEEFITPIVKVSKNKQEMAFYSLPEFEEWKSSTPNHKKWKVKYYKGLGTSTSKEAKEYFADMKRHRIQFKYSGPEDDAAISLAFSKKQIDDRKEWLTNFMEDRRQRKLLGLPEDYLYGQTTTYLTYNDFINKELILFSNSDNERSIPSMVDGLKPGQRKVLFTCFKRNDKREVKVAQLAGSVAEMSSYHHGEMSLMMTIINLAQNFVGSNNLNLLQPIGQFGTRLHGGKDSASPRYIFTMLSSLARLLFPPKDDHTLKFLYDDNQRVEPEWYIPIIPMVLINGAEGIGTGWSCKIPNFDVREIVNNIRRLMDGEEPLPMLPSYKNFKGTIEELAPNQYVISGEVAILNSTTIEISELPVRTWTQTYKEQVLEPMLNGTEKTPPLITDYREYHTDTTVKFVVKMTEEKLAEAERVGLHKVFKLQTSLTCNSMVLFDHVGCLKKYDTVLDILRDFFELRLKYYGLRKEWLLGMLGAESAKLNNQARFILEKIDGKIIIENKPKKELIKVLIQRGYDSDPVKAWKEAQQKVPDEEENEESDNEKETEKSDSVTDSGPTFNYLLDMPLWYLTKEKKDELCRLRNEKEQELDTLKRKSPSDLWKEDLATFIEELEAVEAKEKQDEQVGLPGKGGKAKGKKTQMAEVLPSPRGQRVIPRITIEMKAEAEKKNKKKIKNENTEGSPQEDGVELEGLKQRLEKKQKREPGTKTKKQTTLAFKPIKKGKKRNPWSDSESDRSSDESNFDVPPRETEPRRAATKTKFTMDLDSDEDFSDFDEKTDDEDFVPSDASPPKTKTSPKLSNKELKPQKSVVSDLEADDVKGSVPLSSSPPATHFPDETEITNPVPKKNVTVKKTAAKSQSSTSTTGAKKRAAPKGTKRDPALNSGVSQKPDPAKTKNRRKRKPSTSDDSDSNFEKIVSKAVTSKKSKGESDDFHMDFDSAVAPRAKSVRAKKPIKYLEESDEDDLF

`Cc1c2ccncc2c(C)c2c1[nH]c1ccccc12` [ET, 5,11-dimethyl-6H-pyrido[4,3-b]carbazole]: the IC50 was above 200 µM.
